Laboratory results from paper PMC8197800, “Structure and Dynamics of Meprin β in Complex with a Hydroxamate-Based Inhibitor” (International Journal of Molecular Sciences, 2021).
pIC50, pKd, pKi: −log10 of the molar value. Like-named read-outs stand apart in the source and are kept apart here.

Tests used:
Meprin β = biological target: T1, Meprin β (Homo sapiens, UniProt Q16820); assay: Meprin β enzyme inhibition (cleavage of quenched fluorogenic peptide Abz-YVAEAPK(Dnp)G-OH); type: biochemical
T1 construct: For the purified, truncated variant Meprin β^62–595 (MβΔC), despite reduced protein yield, identical specific activity was detected; His-tag (N, cleaved yes); made in house; host or cells: Pichia pastoris
T1 sequence (Q16820 62-595): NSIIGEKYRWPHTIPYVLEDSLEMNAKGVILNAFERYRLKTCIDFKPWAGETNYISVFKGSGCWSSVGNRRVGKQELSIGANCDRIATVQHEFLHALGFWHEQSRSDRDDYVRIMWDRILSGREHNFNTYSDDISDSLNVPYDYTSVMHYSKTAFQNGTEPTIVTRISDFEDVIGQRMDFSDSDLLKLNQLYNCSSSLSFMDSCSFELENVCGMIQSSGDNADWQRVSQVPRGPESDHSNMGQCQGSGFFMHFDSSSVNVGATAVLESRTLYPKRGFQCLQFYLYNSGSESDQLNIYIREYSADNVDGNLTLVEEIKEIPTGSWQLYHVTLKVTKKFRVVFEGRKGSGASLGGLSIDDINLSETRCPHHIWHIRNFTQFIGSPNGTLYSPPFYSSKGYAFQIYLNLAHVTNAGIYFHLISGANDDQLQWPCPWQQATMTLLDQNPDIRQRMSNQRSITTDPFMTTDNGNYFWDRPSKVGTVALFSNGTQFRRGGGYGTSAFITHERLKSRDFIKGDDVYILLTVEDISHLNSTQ
Method: The enzymatic activity of Meprin β was determined, essentially as described previously. The assay is based on the change of fluorescence intensity due to cleavage of the internally quenched peptide substrate Abz-YVAEAPK(Dnp)G-OH (λex 340 nm/λem 420 nm). For activity determination during expression and purification, the proenzyme was activated by trypsin. For activation, 100 µL of cleavage buffer (50 mM Tris/HCl, 10 mM CaCl2, pH 7.5), 50 µL Meprin β solution and 50 µL bovine trypsin 500 µg/mL (Sigma Aldrich) were mixed and incubated for 15 min at 30 °C. An aliquot of the reaction (50 µL) was mixed again with 150 µL assay buffer consisting of 40 mM Tris/HCl, pH 8.0, 0.05% Brij 30. The reaction was initiated by addition of 50 µL of substrate (final concentration 50 µM), which was dissolved in assay buffer.

Meprin β62–595 (MβΔC) [1] = biological target: T2, Meprin β62–595 (MβΔC) (Homo sapiens, UniProt Q16820); assay: Isothermal titration calorimetry (ITC) of inhibitors to Meprin β62–595 (MβΔC); type: binding; parameters: H (one-site fit) / S (one-site fit): unit not given here; conditions: for H (one-site fit) / K (association constant, one-site fit) / N (stoichiometry, one-site fit) / S (one-site fit): ITC fit; for pKd / ΔH (binding enthalpy) / −ΔS * T (binding entropy term): ITC, 30 °C
T2 construct: His-tag (N, cleaved yes); α-mating factor secretion signal (S. cerevisiae) (N, cleaved yes); made in house; host or cells: Pichia pastoris X33
T2 sequence (Q16820 62-595): T1 sequence (Q16820 62-595)
Method: The binding affinity (KD), binding enthalpy (ΔH), binding entropy (ΔS) and stoichiometry (N) of different Meprin β inhibitors to Meprin β^62–595 (MβΔC) were determined by isothermal titration of the inhibitors to the enzyme at 30 °C using a VP-ITC microcalorimeter (MicroCal). Prior to the binding analysis, the purified Meprin β^62–595 (MβΔC) was dialyzed extensively against 40 mM Tris pH 8.0 (±150 mM NaCl). The inhibitors were diluted 1:50 from DMSO stock solutions into dialysis buffer and 2% (v/v) DMSO were added to the dialyzed enzyme solution immediately before starting the titration experiment. The instrument was operated according to the manufacturer’s instructions and the data analyzed using MicroCal ORIGIN software. The obtained binding heat was corrected by the dilution heat of the ligand, which was recorded by titration of the inhibitor (1:50 diluted) into the dialysis buffer containing 2% (v/v) DMSO. The corrected data were evaluated by a single-site binding model calculating N, KD, ΔH and ΔS.
1. MWT-S-270 (-NaCl) 2. MWT-S-270 (+ NaCl)
Figure S7: ITC binding curves for the titration of Meprin β62-595 (MβΔC) with different inhibitors. […]

Meprin β62–595 (MβΔC) [2] = biological target: T2, Meprin β62–595 (MβΔC); assay: Proteolytic stability of concentrated Meprin β62–595 (MβΔC) with inhibitor, SDS-PAGE; conditions: 15 °C; for stability of Meprin β62–595 (MβΔC) with inhibitor added: SDS-PAGE; for degradation of Meprin β62–595 (MβΔC) on addition of inhibitor: up to 15 days, molar ratio 1:1.3 (actinonin), 1:1.2 (MWT-S-270)
Method: For reduction of potential heterogeneity, flexible glycosyl chains were removed by deglycosylation. The influence of different detergents and protein concentrations on the deglycosylation and stability of the enzyme has been investigated and analyzed by SDS-PAGE. […] To prevent degradation, the non-specific Meprin β inhibitor actinonin or the specific Meprin β inhibitor MWT-S-270 was added to the protein solution in a molar ratio of 1:1.3 and 1:1.2, respectively.
For the removal of surface-exposed glycosyl chains, a deglycosylation was performed prior to crystallization.
(MβΔC) before and after deglycosylation by EndoH under native conditions.
(1 picture or pasted object on this page, not shown here)

Meprin α = conditions: cited from earlier work
[3] = 40 mM Tris pH 8.0 (no NaCl), read-out: Ki

SMILES	pIC50 (Meprin β; 40 mM Tris pH 8.0 (no NaCl))	pKi (Meprin β; [3])	H (one-site fit) (Meprin β62–595 (MβΔC) [1]; Figure S7, -NaCl)	K (association constant, one-site fit) (Meprin β62–595 (MβΔC) [1]; Figure S7, -NaCl)	N (stoichiometry, one-site fit) (Meprin β62–595 (MβΔC) [1]; Figure S7, -NaCl)	S (one-site fit) (Meprin β62–595 (MβΔC) [1]; Figure S7, -NaCl)	pKd (Meprin β62–595 (MβΔC) [1]; 40 mM Tris pH 8.0 (no NaCl))	ΔH (binding enthalpy) (Meprin β62–595 (MβΔC) [1]; 40 mM Tris pH 8.0 (no NaCl))	−ΔS * T (binding entropy term) (Meprin β62–595 (MβΔC) [1]; 40 mM Tris pH 8.0 (no NaCl))	stability of Meprin β62–595 (MβΔC) with inhibitor added (Meprin β62–595 (MβΔC) [2])	degradation of Meprin β62–595 (MβΔC) on addition of inhibitor (Meprin β62–595 (MβΔC) [2])	further results
O=C(CN(Cc1ccccc1)Cc1cccc(C(=O)O)c1)NO [3 (396)]	5.89	5.86	-1138 ±32.08	1.34E6 ±2.22E5	1.09 ±0.0225	24.3	6.13	-4.761 kJ/mol	-30.81 kJ/mol			
CCCCC[C@H](CC(=O)NO)C(=O)N[C@H](C(=O)N1CCC[C@H]1CO)C(C)C [actinonin, reference compound]										at least 15 days	prevented	
O=C(CN(Cc1cccc(C(=O)O)c1)Cc1cccc(C(=O)O)c1)NO [1 (270), 3-[[(3-Carboxyphenyl)methyl-[2-(hydroxyamino)-2-oxoethyl]amino]methyl]benzoic acid]			-3884 ±41.29	6.31E7 ±1.05E7	0.939 ±0.00648	22.9	7.80	-16.25 kJ/mol	-29.03 kJ/mol	at least 15 days	prevented	pIC50 (Meprin β; 150 mM NaCl, 40 mM Tris pH 8.0): 6.75; pKi (Meprin β; 150 mM NaCl, 40 mM Tris pH 8.0, read-out: Ki): 6.70; pKi (Meprin β; Ki, 40 mM Tris pH 8.0 (no NaCl)): 7.54; H (one-site fit) (Meprin β62–595 (MβΔC) [1]; Figure S7, + NaCl): -4554 ±133,1; K (association constant, one-site fit) (Meprin β62–595 (MβΔC) [1]; Figure S7, + NaCl): 2,50E6 ±5,30E5; N (stoichiometry, one-site fit) (Meprin β62–595 (MβΔC) [1]; Figure S7, + NaCl): 1,13 ±0,0246; S (one-site fit) (Meprin β62–595 (MβΔC) [1]; Figure S7, + NaCl): 14,2; pKd (Meprin β62–595 (MβΔC) [1]; 150 mM NaCl, 40 mM Tris pH 8.0): 6.40; ΔH (binding enthalpy) (Meprin β62–595 (MβΔC) [1]; 150 mM NaCl, 40 mM Tris pH 8.0): -19.05 kJ/mol; −ΔS * T (binding entropy term) (Meprin β62–595 (MβΔC) [1]; 150 mM NaCl, 40 mM Tris pH 8.0): -18 kJ/mol; pIC50 (Meprin α; read-out: IC50 towards Meprin α): 4.79; stronger inhibition of Meprin β in comparison to Meprin α (Meprin α; selectivity Meprin β over Meprin α): more than 100 fold
O=C(CN(Cc1cccc(C(=O)O)c1)Cc1ccc2c(c1)OCO2)NO [2 (416)]	6.55	6.72	-3966 ±57,47	4,21E6 ±6,18E5	1,06 ±0,0110	17,2	6.63	-16.59 kJ/mol	-21.81 kJ/mol			
